≈ marks a conversion by molar mass, not a printed value. Bounds are passed on as bounds.

The nature of this data set: High-throughput equilibrium solubility at pH 6.8. The following applies: pH 6.8, aqueous buffer, thermodynamic from solid; read-out: HT-Eq Sol/pH 6.8. Type of data set: physicochemical. The essentials:
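Solubility was measured at pH 6.8 following the cited Zhou et al. (2007) procedure.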
In the case of `COc1ncccc1-n1c(=O)n(C)c2cnc3ccc(-c4cnc5c(ccn5C)c4)cc3c21` [Example 1.7, 1-(2-Methoxy-pyridin-3-yl)-3-methyl-8-(1-methyl-1H-pyrrolo[2,3-b]pyridin-5-yl)-1,3-dihydro-imidazo[4,5-c]quinolin-2-one], the solubility thermodynamic is 3 µg/mL (≈ 6.87 µM).

With `COc1ncccc1-n1c(=O)n(C)c2cnc3ccc(-c4ccc(F)nc4)cc3c21` [Example 1.8, 8-(6-Fluoro-pyridin-3-yl)-1-(2-methoxy-pyridin-3-yl)-3-methyl-1,3-dihydro-imidazo[4,5-c]quinolin-2-one], the solubility thermodynamic came to 4 µg/mL (≈ 9.97 µM). `COc1ncccc1-n1c(=O)n(C)c2cnc3ccc(-c4cnc(N(C)C)nc4)cc3c21` [Example 1.9, 8-(2-Dimethylamino-pyrimidin-5-yl)-1-(2-methoxy-pyridin-3-yl)-3-methyl-1,3-dihydro-imidazo[4,5-c]quinolin-2-one]: the solubility thermodynamic worked out at 3 µg/mL (≈ 7.02 µM). With `CCNc1cc(-c2ccc3ncc4c(c3c2)n(-c2ccc(F)nc2C)c(=O)n4C)cnc1CO` [Example 7.9, 8-(5-Ethylamino-6-hydroxymethyl-pyridin-3-yl)-1-(6-fluoro-2-methyl-pyridin-3-yl)-3-methyl-1,3-dihydro-imidazo[4,5-c]quinolin-2-one], the solubility thermodynamic came to 299 µg/mL (≈ 652 µM). As to `CNc1cc(-c2ccc3ncc4c(c3c2)n(-c2ccc(F)nc2C)c(=O)n4C)cnc1CO` [Example 7.11, 1-(6-Fluoro-2-methyl-pyridin-3-yl)-8-(6-hydroxymethyl-5-methylamino-pyridin-3-yl)-3-methyl-1,3-dihydro-imidazo[4,5-c]quinolin-2-one], the solubility thermodynamic amounted to 207 µg/mL (≈ 466 µM). As for `CNc1ncc(-c2ccc3ncc4c(c3c2)n(-c2ccc(F)nc2C)c(=O)n4C)cc1F` [Example 7.12, 8-(5-Fluoro-6-methylamino-pyridin-3-yl)-1-(6-fluoro-2-methyl-pyridin-3-yl)-3-methyl-1,3-dihydro-imidazo[4,5-c]quinolin-2-one], the solubility thermodynamic was 3 µg/mL (≈ 6.94 µM). With `CNc1ncc(-c2ccc3ncc4c(c3c2)n(-c2ccc(F)nc2C)c(=O)n4C)cc1C(F)(F)F` [Example 7.13, 1-(6-Fluoro-2-methyl-pyridin-3-yl)-3-methyl-8-(6-methylamino-5-trifluoromethyl-pyridin-3-yl)-1,3-dihydro-imidazo[4,5-c]quinolin-2-one] the figure was 20 µg/mL (≈ 41.5 µM). In the case of `CNC(=O)c1cc(-c2ccc3ncc4c(c3c2)n(-c2ccc(F)nc2C)c(=O)n4C)cnc1N` [Example 7.14, 2-Amino-5-[1-(6-fluoro-2-methyl-pyridin-3-yl)-3-methyl-2-oxo-2,3-dihydro-1H-imidazo[4,5-c]quinolin-8-yl]-N-methyl-nicotinamide], the solubility thermodynamic stood at 3 µg/mL (≈ 6.56 µM). In the case of `CCOCc1cc(-c2ccc3ncc4c(c3c2)n(-c2ccc(F)nc2C)c(=O)n4C)cnc1N` [Example 7.15, 8-(6-Amino-5-ethoxymethyl-pyridin-3-yl)-1-(6-fluoro-2-methyl-pyridin-3-yl)-3-methyl-1,3-dihydro-imidazo[4,5-c]quinolin-2-one] it was 67.5 µg/mL (≈ 147 µM); in that of `Cc1nc(F)ccc1-n1c(=O)n(C)c2cnc3ccc(-c4cncc(N)c4)cc3c21` [Example 7.16, 8-(5-Amino-pyridin-3-yl)-1-(6-fluoro-2-methyl-pyridin-3-yl)-3-methyl-1,3-dihydro-imidazo[4,5-c]quinolin-2-one], 187 µg/mL (≈ 467 µM); in that of `Cc1nc(F)ccc1-n1c(=O)n(C)c2cnc3ccc(-c4cnc(N)c(CO)c4)cc3c21` [Example 7.17, 8-(6-Amino-5-hydroxymethyl-pyridin-3-yl)-1-(6-fluoro-2-methyl-pyridin-3-yl)-3-methyl-1,3-dihydro-imidazo[4,5-c]quinolin-2-one], more than 430 µg/mL. As for `COc1ccc(-n2c(=O)n(C)c3cnc4ccc(-c5ccc6nccn6c5)cc4c32)c(OC)n1` [Example 8.10, 1-(2,6-Dimethoxy-pyridin-3-yl)-8-imidazo[1,2-a]pyridin-6-yl-3-methyl-1,3-dihydro-imidazo[4,5-c]quinolin-2-one], the solubility thermodynamic is 47 µg/mL (≈ 104 µM). With `COCc1ncc(-c2ccc3ncc4c(c3c2)n(-c2ccc(OC)nc2OC)c(=O)n4C)cc1OC` [Example 8.12, 1-(2,6-Dimethoxy-pyridin-3-yl)-8-(5-methoxy-6-methoxymethyl-pyridin-3-yl)-3-methyl-1,3-dihydro-imidazo[4,5-c]quinolin-2-one], the solubility thermodynamic was determined as 13 µg/mL (≈ 26.7 µM). In the case of `COc1nc(N2CCNCC2)ccc1-n1c(=O)n(C)c2cnc3ccc(-c4cnc(N(C)C)nc4)cc3c21` [Example 9.4, 8-(2-Dimethylamino-pyrimidin-5-yl)-1-(2-methoxy-6-piperazin-1-yl-pyridin-3-yl)-3-methyl-1,3-dihydro-imidazo[4,5-c]quinolin-2-one] it was more than 512 µg/mL; in that of `CCNc1cc(-c2ccc3ncc4c(c3c2)n(-c2ccc(OC)nc2C)c(=O)n4C)cnc1C` [Example 11.7, 8-(5-Ethylamino-6-methyl-pyridin-3-yl)-1-(6-methoxy-2-methyl-pyridin-3-yl)-3-methyl-1,3-dihydro-imidazo[4,5-c]quinolin-2-one], 3 µg/mL (≈ 6.6 µM). With `COc1ccc(-n2c(=O)n(C)c3cnc4ccc(-c5cnc(CO)c(OC)c5)cc4c32)c(C)n1` [Example 11.8, 8-(6-Hydroxymethyl-5-methoxy-pyridin-3-yl)-1-(6-methoxy-2-methyl-pyridin-3-yl)-3-methyl-1,3-dihydro-imidazo[4,5-c]quinolin-2-one], the solubility thermodynamic was found to be 26 µg/mL (≈ 56.8 µM). As for `CCNc1cc(-c2ccc3ncc4c(c3c2)n(-c2ccc(N(C)CC)nc2C)c(=O)n4C)cnc1C` [Example 12.2, 8-(5-Ethylamino-6-methyl-pyridin-3-yl)-1-[6-(ethyl-methyl-amino)-2-methyl-pyridin-3-yl]-3-methyl-1,3-dihydro-imidazo[4,5-c]quinolin-2-one], the solubility thermodynamic is 5 µg/mL (≈ 10.4 µM). Regarding `CCOc1ccc(-c2ccc3ncc4c(c3c2)n(-c2ccc(OCCOC)nc2C)c(=O)n4C)cn1` [Example 13.1, 8-(6-Ethoxy-pyridin-3-yl)-1-[6-(2-methoxy-ethoxy)-2-methyl-pyridin-3-yl]-3-methyl-1,3-dihydro-imidazo[4,5-c]quinolin-2-one], the solubility thermodynamic came out at 3 µg/mL (≈ 6.18 µM). With `COCCOc1ccc(-n2c(=O)n(C)c3cnc4ccc(-c5cnc(N)c(C(F)(F)F)c5)cc4c32)c(C)n1` [Example 13.2, 8-(6-Amino-5-trifluoromethyl-pyridin-3-yl)-1-[6-(2-methoxy-ethoxy)-2-methyl-pyridin-3-yl]-3-methyl-1,3-dihydro-imidazo[4,5-c]quinolin-2-one], the solubility thermodynamic came out at 27 µg/mL (≈ 51.5 µM).

In the case of `CNc1ccc(-c2ccc3ncc4c(c3c2)n(-c2ccc(OCCOC)nc2C)c(=O)n4C)cn1` [Example 13.3, 1-[6-(2-Methoxy-ethoxy)-2-methyl-pyridin-3-yl]-3-methyl-8-(6-methylamino-pyridin-3-yl)-1,3-dihydro-imidazo[4,5-c]quinolin-2-one], the solubility thermodynamic came out at 10 µg/mL (≈ 21.3 µM). Regarding `CCNc1cc(-c2ccc3ncc4c(c3c2)n(-c2ccc(OCCOC)nc2C)c(=O)n4C)cnc1C` [Example 13.4, 8-(5-Ethylamino-6-methyl-pyridin-3-yl)-1-[6-(2-methoxy-ethoxy)-2-methyl-pyridin-3-yl]-3-methyl-1,3-dihydro-imidazo[4,5-c]quinolin-2-one], the solubility thermodynamic came to 7 µg/mL (≈ 14 µM). As for `CNc1ncc(-c2ccc3ncc4c(c3c2)n(-c2ccc(OCCOC)nc2C)c(=O)n4C)cn1` [Example 13.5, 1-[6-(2-Methoxy-ethoxy)-2-methyl-pyridin-3-yl]-3-methyl-8-(2-methylamino-pyrimidin-5-yl)-1,3-dihydro-imidazo[4,5-c]quinolin-2-one], the solubility thermodynamic came to 15 µg/mL (≈ 31.8 µM).

As for `CCOc1ccc(-c2ccc3ncc4c(c3c2)n(-c2ccc(C)nc2C)c(=O)n4C)cn1` [Example 14.2, 1-(2,6-Dimethyl-pyridin-3-yl)-8-(6-ethoxy-pyridin-3-yl)-3-methyl-1,3-dihydro-imidazo[4,5-c]quinolin-2-one], the solubility thermodynamic was 4 µg/mL (≈ 9.4 µM). Turning to `Cc1ccc(-n2c(=O)n(C)c3cnc4ccc(-c5cnc(N(C)C)nc5)cc4c32)c(C)n1` [Example 14.3, 8-(2-Dimethylamino-pyrimidin-5-yl)-1-(2,6-dimethyl-pyridin-3-yl)-3-methyl-1,3-dihydro-imidazo[4,5-c]quinolin-2-one], the solubility thermodynamic turned out to be 7 µg/mL (≈ 16.5 µM). `CNc1ncc(-c2ccc3ncc4c(c3c2)n(-c2ccc(C)nc2C)c(=O)n4C)cn1` [Example 14.4, 1-(2,6-Dimethyl-pyridin-3-yl)-3-methyl-8-(2-methylamino-pyrimidin-5-yl)-1,3-dihydro-imidazo[4,5-c]quinolin-2-one]: the solubility thermodynamic stood at 8 µg/mL (≈ 19.4 µM). For the compound `CCNc1cc(-c2ccc3ncc4c(c3c2)n(-c2ccc(C)nc2C)c(=O)n4C)cnc1C` [Example 14.6, 1-(2,6-Dimethyl-pyridin-3-yl)-8-(5-ethylamino-6-methyl-pyridin-3-yl)-3-methyl-1,3-dihydro-imidazo[4,5-c]quinolin-2-one], the solubility thermodynamic was 175 µg/mL (≈ 399 µM).

In the case of `Cc1ccc(-n2c(=O)n(C)c3cnc4ccc(-c5cncc(NC(C)C)c5)cc4c32)c(C)n1` [Example 14.8, 1-(2,6-Dimethyl-pyridin-3-yl)-8-(5-isopropylamino-pyridin-3-yl)-3-methyl-1,3-dihydro-imidazo[4,5-c]quinolin-2-one], the solubility thermodynamic is 12 µg/mL (≈ 27.4 µM).

Turning to `CNc1ncc(-c2ccc3ncc4c(c3c2)n(-c2ccc(N(C)CCOC)nc2C)c(=O)n4C)cn1` [Example 15.2, 1-{6-[(2-Methoxy-ethyl)-methyl-amino]-2-methyl-pyridin-3-yl}-3-methyl-8-(2-methylamino-pyrimidin-5-yl)-1,3-dihydro-imidazo[4,5-c]quinolin-2-one], the solubility thermodynamic amounted to 81 µg/mL (≈ 167 µM).

`CCNc1cc(-c2ccc3ncc4c(c3c2)n(-c2ccc(N(C)CCOC)nc2C)c(=O)n4C)cnc1C` [Example 15.6, 8-(5-Ethylamino-6-methyl-pyridin-3-yl)-1-{6-[(2-methoxy-ethyl)-methyl-amino]-2-methyl-pyridin-3-yl}-3-methyl-1,3-dihydro-imidazo[4,5-c]quinolin-2-one]: the solubility thermodynamic was determined as 140 µg/mL (≈ 274 µM).

The record behind these values is US20100311714A1, “1H-IMIDAZO[4,5-c]QUINOLINONE COMPOUNDS” (priority 2009, published 2010).
